Patent US20260001886A1, “ENPP1 INHIBITORS I” (RE Ventures I, LLC, priority 2024, published 2026)

Assays:
human CA-II (CA2) = human CA-II (CA2) (Homo sapiens (Human), UniProt P00918); assay: Surface plasmon resonance, carbonic anhydrase II; details: 25° C., CM5 chip
Method: (§1) Cytiva Biacore S200, T200 and 3000 machines were used for all SPR experiments. […] For carbonic anhydrases, data were collected at a constant temperature of 25° C. Human CA-I (CA1) or human CA-II (CA2) was captured via standard EDC/NHS protocol on a Biacore CM5 chip using standard protocols in HBS-N buffer (10 mM HEPES (pH 7.4), 150 mM NaCl) at ˜2000 RU. The experiments were run in PBS buffer containing 0.05% Tween 20 and 3% DMSO. All compounds were initially screened at concentrations ranging from 23 nM to 50 µM or 4.6 nM to 10 µM, injecting from the lowest to highest concentrations and adjusting appropriately for each compound for repeat experiments. Scrubber 2 (Biologic software) was used to process and analyse SPR data. […] Data for the inhibitors were referenced to those for a blank surface and blank injections to normalise for non-specific binding and drift. A DMSO calibration was run to remove excluded volume effect of binding responses between reference and target surface.

human CA-I (CA1) = human CA-I (CA1) (Homo sapiens (Human), UniProt P00915); assay: Surface plasmon resonance, carbonic anhydrase I; details: 25° C., CM5 chip
Method: as §1

Human ENPP1 = Human ENPP1 (Homo sapiens (Human), UniProt P22413)
Sequence of Human ENPP1 (P22413 whole entry): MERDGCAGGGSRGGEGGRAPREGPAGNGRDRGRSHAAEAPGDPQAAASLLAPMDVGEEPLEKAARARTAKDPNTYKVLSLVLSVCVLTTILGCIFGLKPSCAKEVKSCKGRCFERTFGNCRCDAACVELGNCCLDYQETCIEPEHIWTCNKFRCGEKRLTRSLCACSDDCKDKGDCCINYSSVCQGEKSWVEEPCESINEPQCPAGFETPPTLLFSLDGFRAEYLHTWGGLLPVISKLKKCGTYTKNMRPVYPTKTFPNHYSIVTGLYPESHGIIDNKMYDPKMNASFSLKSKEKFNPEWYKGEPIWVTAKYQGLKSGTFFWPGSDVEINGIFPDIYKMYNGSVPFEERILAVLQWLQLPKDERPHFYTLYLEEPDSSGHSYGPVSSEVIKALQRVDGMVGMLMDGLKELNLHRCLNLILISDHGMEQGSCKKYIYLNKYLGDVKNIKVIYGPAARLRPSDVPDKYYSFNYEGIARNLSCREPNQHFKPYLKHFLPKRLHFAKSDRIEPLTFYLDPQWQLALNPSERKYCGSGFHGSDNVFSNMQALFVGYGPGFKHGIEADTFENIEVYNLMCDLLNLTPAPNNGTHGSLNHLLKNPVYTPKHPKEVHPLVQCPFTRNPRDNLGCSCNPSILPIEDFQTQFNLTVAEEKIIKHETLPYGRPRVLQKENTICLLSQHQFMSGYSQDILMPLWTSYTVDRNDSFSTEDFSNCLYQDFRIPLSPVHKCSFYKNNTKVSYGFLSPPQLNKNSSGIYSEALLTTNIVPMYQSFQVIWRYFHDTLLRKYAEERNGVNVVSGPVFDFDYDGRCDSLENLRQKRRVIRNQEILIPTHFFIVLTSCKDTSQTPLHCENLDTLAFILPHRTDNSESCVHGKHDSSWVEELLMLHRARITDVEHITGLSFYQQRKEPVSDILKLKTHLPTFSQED
Method: ENPP1 catalyses the hydrolysis of ATP into AMP+PPi. AMP production was monitored using Bellbrooks Transcreener AMP/GMP TR-FRET assay kit (Cat No. 3020-10K) according to the manufacturer's instructions. The assay was run with 50 mM Tris pH 7.5, 5 mM MgCl2, 150 mM NaCl, 0.005% Tween20 and distilled H2O. Antibody and tracer were diluted to 2 nM. […] Mouse ENPP1 was run at 15 pM with ATP at 400 nM. AMP produced in the assay by ENPP1 activity competes with a far-red tracer labelled AMP bound to an AMP specific antibody resulting in a decrease in TR-FRET. ENPP1 inhibition reduces AMP production and increases the TR-FRET signal.

Sequence of human CA-I (CA1) (P00915 whole entry): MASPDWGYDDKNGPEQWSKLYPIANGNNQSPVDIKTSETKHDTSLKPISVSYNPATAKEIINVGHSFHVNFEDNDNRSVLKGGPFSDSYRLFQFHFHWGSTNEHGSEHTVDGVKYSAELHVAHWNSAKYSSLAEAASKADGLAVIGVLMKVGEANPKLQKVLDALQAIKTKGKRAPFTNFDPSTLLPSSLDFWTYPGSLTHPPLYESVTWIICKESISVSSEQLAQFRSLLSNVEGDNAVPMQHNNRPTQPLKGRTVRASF

| Structure (SMILES) | CA2 human SPR pKD (human CA-II (CA2)) | CA1 human SPR pKD (human CA-I (CA1)) | EC50 (Human ENPP1) [nM] |
| --- | --- | --- | --- |
| CC(C)c1cn(Cc2ccc(S(C)(=N)=O)cc2F)c2nc(C3CC3)nn2c1=O (stereo not drawn) [Compound 12, 2-cyclopropyl-4-(2-fluoro-4-(S-methylsulfonimidoyl)benzyl)-6-isopropyl-[1,2,4]triazolo[1,5-a]pyrimidin-7(4H)-one] | 3.0 | <1 | – |
| Cc1nc2n(C[C@H]3C[C@H]4C[C@@H]3CN4S(N)(=O)=O)cc(-c3ccc(F)cc3)c(=O)n2n1 [Compound 14, (1S,4S,5S)-5-((6-(4-fluorophenyl)-2-methyl-7-oxo-[1,2,4]triazolo[1,5-a]pyrimidin-4(7H)-yl)methyl)-2-azabicyclo[2.2.1]heptane-2-sulfonamide] | 3.0 | <1 | 3.98 |
| CC(C)c1cn(C[C@H]2C[C@H]3C[C@@H]2CN3S(N)(=O)=O)c2c3cccnc3nn2c1=O [Compound 41, (1S,4S,5S)-5-((3-Isopropyl-4-oxopyrido[2′,3′: 3,4]pyrazolo[1,5-a]pyrimidin-1 (4H)-yl)methyl)-2-azabicyclo[2.2.1]heptane-2-sulfonamide] | 3.0 | 3.0 | – |
| CC(C)c1cn(Cc2ccc([S@](C)(=N)=O)cc2F)c2nc(C3CC3)nn2c1=O (single isomer, unassigned) [Compound 69] | <1 | <1 | – |
| CC(C)c1cn(Cc2ccc3c(c2)OCCS3(=N)=O)c2nc(C3CC3)nn2c1=O (stereo not drawn) [Compound 53, 2-Cyclopropyl-4-((4-imino-4-oxido-3,4-dihydro-2H-4lambda4-benzo[b][1,4]oxathiin-7-yl)methyl)-6-isopropyl-[1,2,4]triazolo[1,5-a]pyrimidin-7(4H)-one] | – | – | 100 |
| COc1cccc2c1nn1c(=O)c(C(C)C)cn(C[C@H]3C[C@H]4C[C@@H]3CN4S(N)(=O)=O)c21 [Compound 42, (1S,4S,5S)-5-((3-Isopropyl-7-methoxy-4-oxopyrimido[1,2-b]indazol-1 (4H)-yl)methyl)-2-azabicyclo[2.2.1]heptane-2-sulfonamide] | 4.5 | 3.0 | – |
| CC(C)c1cn(Cc2ccc(S(C)(=N)=O)c(C(F)(F)F)c2)c2cc(C3CC3)nn2c1=O (stereo not drawn) [Compound 20, 2-cyclopropyl-6-isopropyl-4-(4-(S-methylsulfonimidoyl)-3-(trifluoromethyl)benzyl) pyrazolo[1,5-a]pyrimidin-7(4H)-one] | – | – | 6.31 |
| Cc1cc([S@@](C)(=N)=O)ccc1Cn1cc(C(C)C)c(=O)n2nc(C3CC3)cc12 (single isomer, unassigned) [Compound 66] | – | – | 1.26 |
| CC(C)c1cn(Cc2ccc(S(C)(=N)=O)c(F)c2)c2nc(C3CC3)nn2c1=O (stereo not drawn) [Compound 63, 2-Cyclopropyl-4-(3-fluoro-4-(S-methylsulfonimidoyl)benzyl)-6-isopropyl-[1,2,4]triazolo[1,5-a]pyrimidin-7(4H)-one] | – | – | 10 |
| CC(C)c1cn(Cc2ccc(S(C)(=N)=O)cc2)c2cc(C3CC3)nn2c1=O (stereo not drawn) [Compound 57, 2-Cyclopropyl-6-isopropyl-4-(4-(S-methylsulfonimidoyl)benzyl)pyrazolo[1,5-a]pyrimidin-7(4H)-one] | 3.0 | <1 | – |
| Cc1nn2c(=O)c(C(C)C)cn(C[C@H]3C[C@H]4C[C@@H]3CN4S(N)(=O)=O)c2c1Cl [Compound 4, (1S,4S,5S)-5-((3-chloro-6-isopropyl-2-methyl-7-oxopyrazolo[1,5-a]pyrimidin-4(7H)-yl)methyl)-2-azabicyclo[2.2.1]heptane-2-sulfonamide] | 4.9 | 3.0 | – |
| CC(C)c1nn2c(=O)c(C(C)C)cn(C[C@H]3C[C@H]4C[C@@H]3CN4S(N)(=O)=O)c2c1F [Compound 43, (1S,4S,5S)-5-((3-Fluoro-2,6-diisopropyl-7-oxopyrazolo[1,5-a]pyrimidin-4(7H)-yl)methyl)-2-azabicyclo[2.2.1]heptane-2-sulfonamide] | 4.8 | 3.0 | 3.98 |
| COCc1nc2n(Cc3ccc(S(C)(=N)=O)cc3)cc(C(C)C)c(=O)n2n1 (stereo not drawn) [Compound 33, 6-isopropyl-2-(methoxymethyl)-4-(4-(S-methylsulfonimidoyl)benzyl)-[1,2,4]triazolo[1,5-a]pyrimidin-7(4H)-one] | – | – | 7.94 |
| CC(C)c1cn(C[C@H]2C[C@H]3C[C@@H]2CN3S(N)(=O)=O)c2c(C#N)c(C3CC3)nn2c1=O [Compound 45, (1S,4S,5S)-5-((3-Cyano-2-cyclopropyl-6-isopropyl-7-oxopyrazolo[1,5-a]pyrimidin-4(7H)-yl)methyl)-2-azabicyclo[2.2.1]heptane-2-sulfonamide] | – | – | 6.31 |
| CC(C)c1cn(Cc2ccc(S(=N)(=O)C(C)C)cc2)c2nc(C3CC3)nn2c1=O (stereo not drawn) [Compound 64, 2-Cyclopropyl-6-isopropyl-4-(4-(propan-2-ylsulfonimidoyl)benzyl)-[1,2,4]triazolo[1,5-a]pyrimidin-7(4H)-one] | – | – | 7.94 |
| Cc1cc2n(Cc3ccc([S@](C)(=N)=O)cc3)cc(C(C)C)c(=O)n2n1 (single isomer, unassigned) [Compound 9B] | <1 | <1 | – |
| CC(C)c1cn(C[C@H]2C[C@H]3C[C@@H]2CN3S(N)(=O)=O)c2nc(Cl)nn2c1=O [Compound 34, (1S,4S,5S)-5-((2-chloro-6-isopropyl-7-oxo-[1,2,4]triazolo[1,5-a]pyrimidin-4(7H)-yl)methyl)-2-azabicyclo[2.2.1]heptane-2-sulfonamide] | – | – | 15.8 |
| CC(C)c1cn(Cc2ccc3c(c2)CCS3(=N)=O)c2nc(C3CC3)nn2c1=O (stereo not drawn) [Compound 48, 2-Cyclopropyl-4-((1-imino-1-oxido-2,3-dihydro-1H-1l4-benzo[b]thiophen-5-yl)methyl)-6-isopropyl-[1,2,4]triazolo[1,5-a]pyrimidin-7(4H)-one] | – | – | 31.6 |
| CC(C)c1cn(Cc2ccc(S(=N)(=O)C(F)F)cc2)c2nc(C3CC3)nn2c1=O (single isomer, unassigned) [Compound 50] | – | – | 31.6 |
| CC(C)c1cn(Cc2ccc(S(C)(=N)=O)cc2F)c2cc(C3CC3)nn2c1=O (stereo not drawn) [Compound 62, 2-Cyclopropyl-4-(2-fluoro-4-(S-methylsulfonimidoyl)benzyl)-6-isopropylpyrazolo[1,5-a]pyrimidin-7(4H)-one] | 3.0 | <1 | – |
| Cc1nc2n(C[C@H]3C[C@H]4C[C@@H]3CN4S(N)(=O)=O)cc(-c3cccnc3)c(=O)n2n1 [Compound 2, (1S,4S,5S)-5-((2-methyl-7-oxo-6-(pyridin-3-yl)-[1,2,4]triazolo[1,5-a]pyrimidin-4(7H)-yl)methyl)-2-azabicyclo[2.2.1]heptane-2-sulfonamide] | – | – | 251 |
| CC(C)c1cn(Cc2ccc(S(C)(=N)=O)cc2)c2nc(OC3CC3)nn2c1=O (stereo not drawn) [Compound 25, 2-cyclopropoxy-6-isopropyl-4-(4-(S-methylsulfonimidoyl)benzyl)-[1,2,4]triazolo[1,5-a]pyrimidin-7(4H)-one] | – | – | 6.31 |
| CC(C)c1cn(Cc2ccc([S@@](=N)(=O)C(C)C)cc2)c2nc(C3CC3)nn2c1=O (single isomer, unassigned) [Compound 68] | – | – | 6.31 |
| Cc1nc2n(Cc3ccc4c(c3)CCCS4(=N)=O)cc(C(C)C)c(=O)n2n1 (stereo not drawn) [Compound 52, 4-((1-Imino-1-oxido-1/4-thiochroman-6-yl)methyl)-6-isopropyl-2-methyl-[1,2,4]triazolo[1,5-a]pyrimidin-7(4H)-one] | – | – | 126 |
